Data published in DBAASP.
In brackets after ≈: the same amount, converted by molar mass. Several values for one entry are separate records, joined by “and”; a condition that tells them apart may be missing. Equal entries are not always repeated.

Assays:
Assay in all cases: ≥ marks a high value that may be exact or a test limit, other limits are often not marked, values filed in µg/mL are converted to µM
[1] = tested on: Enterobacter cloacae 2524
[2] = tested on: Enterobacter cloacae 6780
[3] = tested on: Pseudomonas aeruginosa 5106
Escherichia coli 170 = tested on: Escherichia coli 170
[4] = tested on: Klebsiella pneumoniae 1625
Escherichia coli 4530 = tested on: Escherichia coli 4530
[5] = tested on: Escherichia coli ATCC 25922
[6] = tested on: Klebsiella pneumoniae 913
Acinetobacter baumannii = tested on: Acinetobacter baumannii
[7] = tested on: Pseudomonas aeruginosa 4677
[8] = tested on: Burkholderia thailandensis
[9] = tested on: Bacillus anthracis Sterne 34F2
[10] = tested on: Bacillus subtilis ATCC 9372
Serratia marcescens = tested on: Serratia marcescens
[11] = tested on: Staphylococcus haemolyticus
[12] = tested on: Staphylococcus aureus 1303
[13] = tested on: Staphylococcus aureus 1350
Escherichia coli 1342 = tested on: Escherichia coli 1342
[14] = tested on: Enterococcus faecalis 981
Escherichia coli 1335 = tested on: Escherichia coli 1335
Klebsiella pneumoniae = tested on: Klebsiella pneumoniae
[15] = tested on: Pseudomonas aeruginosa 1411
[16] = tested on: Staphylococcus aureus ATCC 2592
Escherichia coli 1375 = tested on: Escherichia coli 1375
[17] = tested on: Stenotrophomonas maltophilia
Aeromonas sobria = tested on: Aeromonas sobria
Cryptococcus neoformans = tested on: Cryptococcus neoformans
Escherichia coli = tested on: Escherichia coli
[18] = tested on: Enterococcus faecium 1299
[19] = tested on: Staphylococcus epidermidis
[20] = tested on: Candida albicans ATCC 2002
Proteus mirabilis = tested on: Proteus mirabilis
Escherichia coli 1334 = tested on: Escherichia coli 1334
Staphylococcus aureus = tested on: Staphylococcus aureus
[21] = tested on: Klebsiella pneumoniae 1400
Candida glabrata 0902 = tested on: Candida glabrata 0902
[22] = tested on: Cutibacterium acnes ATCC 11827
[23] = tested on: Pseudomonas aeruginosa 1413
[24] = tested on: Salmonella enterica subsp. enterica serovar Typhi
Proteus vulgaris = tested on: Proteus vulgaris
Arcyria cinerea = tested on: Arcyria cinerea
[25] = tested on: Staphylococcus aureus 1307
[26] = tested on: Pseudomonas aeruginosa ATCC 27853
[27] = tested on: Pseudomonas aeruginosa 1412
Escherichia coli F470 = tested on: Escherichia coli F470
Escherichia coli JW3596 = tested on: Escherichia coli JW3596
Escherichia coli JW3605 = tested on: Escherichia coli JW3605
[28] = tested on: Micrococcus luteus ATCC 9341
Escherichia coli F2513 = tested on: Escherichia coli F2513
Escherichia coli BW25113 = tested on: Escherichia coli BW25113

For CC[C@H](C)[C@H](N)C(=O)N[C@@H](CCCCN)C(=O)N[C@@H](CO)C(=O)N[C@H](C(=O)N[C@@H](C)C(=O)N[C@@H](CO)C(=O)N[C@@H](CCCCN)C(=O)N[C@H](C(=O)N[C@@H](C)C(=O)N[C@@H](CC(N)=O)C(=O)N[C@H](C(=O)N[C@H](C(=O)N[C@@H](CCC(N)=O)C(=O)N[C@@H](CCCCN)C(=O)N[C@@H](CC(C)C)C(=O)N[C@@H](CCCCN)C(=O)N[C@@H](CCCN=C(N)N)C(=O)N[C@@H](CCCCN)C(=O)N[C@@H](C)C(=O)N[C@@H](CCCCN)C(=O)N[C@@H](CC(N)=O)C(=O)N[C@@H](C)C(=O)N[C@H](C(=O)O)C(C)C)C(C)C)[C@@H](C)O)C(C)C)[C@@H](C)CC [IKSIASKVANTVQKLKRKAKNAV], the MIC [1] was ≥ 50 µM, the MIC [2] was 25 µM (≈ 62.4 µg/mL) and the MIC [3] was ≥ 50 µM. It also gave an MIC (Escherichia coli 170) of 3.12 µM (≈ 7.79 µg/mL), an MIC [4] of 3.12 µM (≈ 7.79 µg/mL) and an MIC (Escherichia coli 4530) of 25 µM (≈ 62.4 µg/mL). The MIC [5] was 12.5 µM (≈ 31.2 µg/mL), the MIC [6] was ≥ 50 µM and the MIC (Acinetobacter baumannii) was 8.84 µM (≈ 22.1 µg/mL). The MIC [7] was 12.5 µM (≈ 31.2 µg/mL).
CC[C@H](C)[C@@H]1NC(=O)CNC(=O)[C@H](CO)NC(=O)[C@H](CC(C)C)NC(=O)[C@H](CC(C)C)NC(=O)[C@H](CC(=O)O)NC(=O)[C@@H](NC(=O)[C@@H](NC(=O)[C@H](C)N)[C@@H](C)O)CSSC[C@@H]2NC(=O)[C@H](Cc3ccc(O)cc3)NC(=O)CNC(=O)CNC(=O)[C@H](CCCN=C(N)N)NC(=O)[C@H](CC(N)=O)NC(=O)CNC(=O)[C@H](CCCN=C(N)N)NC(=O)[C@H](Cc3ccccc3)NC(=O)[C@H](C(C)C)NC(=O)[C@@H]3CSSC[C@@H](C(=O)N[C@@H](CCCN=C(N)N)C(=O)N[C@@H](CC(N)=O)C(=O)O)NC(=O)[C@H](C(C)C)NC(=O)[C@H](CSSC[C@H](NC(=O)[C@H](C)NC(=O)[C@H](CO)NC(=O)[C@H](Cc4cnc[nH]4)NC(=O)[C@H](CCC(N)=O)NC(=O)[C@H](C(C)C)NC(=O)CNC1=O)C(=O)N[C@@H](C)C(=O)N[C@@H](CC(C)C)C(=O)N[C@@H](Cc1cnc[nH]1)C(=O)N3)NC(=O)[C@H]([C@@H](C)CC)NC(=O)CNC(=O)[C@H](CCCCN)NC(=O)CNC(=O)[C@H]([C@@H](C)O)NC2=O [ATCDLLSGIGVQHSACALHCVFRGNRGGYCTGKGICVCRN] was tested, and the MIC [8] was ≥ 50 µM, the MIC [9] was ≥ 79 µM and the MIC [10] was 7.9 µM (≈ 32.7 µg/mL).
For CC[C@H](C)[C@H](NC(=O)[C@H](C)NC(=O)[C@H](CCCN=C(N)N)NC(=O)[C@H](Cc1ccc(O)cc1)NC(=O)[C@H](CC(C)C)NC(=O)[C@H](CC(N)=O)NC(=O)[C@H](Cc1ccc(O)cc1)NC(=O)CNC(=O)[C@H](C)NC(=O)[C@@H](NC(=O)[C@@H](NC(=O)[C@@H](NC(=O)[C@H](CCCN=C(N)N)NC(=O)[C@@H](NC(=O)[C@@H](NC(=O)[C@@H](NC(=O)[C@@H]1CCCN1C(=O)[C@H](Cc1c[nH]c2ccccc12)NC(=O)[C@H](Cc1ccccc1)NC(=O)[C@H](CCCN=C(N)N)NC(=O)[C@H](CCCCN)NC(=O)[C@@H](NC(=O)[C@@H](N)CCCN=C(N)N)[C@@H](C)CC)C(C)C)C(C)C)[C@@H](C)CC)[C@@H](C)O)C(C)C)C(C)C)C(=O)N[C@@H](CCCCN)C(=O)N[C@@H](CCCCN)C(=O)N[C@@H](CCCCN)C(=O)O [RIKRFWPVVIRTVVAGYNLYRAIKKK], the MIC (Serratia marcescens) was 31.5 µM and 23.6 µM, the MIC [11] was 0.09 µM (≈ 0.286 µg/mL) and the MIC [12] was 2.95 µM and 1.48 µM. The MIC [13] was 1.48 µM (≈ 4.7 µg/mL), the MIC (Escherichia coli 1342) was 0.74 µM and 1.48 µM and the MIC [14] was 2.95 µM and 1.48 µM. The MIC (Escherichia coli 1335) was 1.48 µM (≈ 4.7 µg/mL), the MIC (Klebsiella pneumoniae) was 2.95 µM and 5.9 µM and the MIC [15] was 1.48 µM and 2.95 µM. The MIC [16] was 0.18 µM (≈ 0.572 µg/mL), the MIC (Escherichia coli 1375) was 2.95 µM (≈ 9.37 µg/mL) and the MIC [17] was 2.95 µM (≈ 9.37 µg/mL). It also gave an MIC (Aeromonas sobria) of 1.48 µM (≈ 4.7 µg/mL), an MIC (Cryptococcus neoformans) of 23.6 µM (≈ 75 µg/mL) and an MIC (Escherichia coli) of 1.48 µM (≈ 4.7 µg/mL). For the same molecule, the MIC [18] was 1.48 µM (≈ 4.7 µg/mL), the MIC [19] was 2.95 µM (≈ 9.37 µg/mL) and the MIC [20] was 0.18 µM and 0.37 µM. The MIC (Proteus mirabilis) was 1.48 µM (≈ 4.7 µg/mL), the MIC [5] was 1.48 µM (≈ 4.7 µg/mL) and the MIC (Escherichia coli 1334) was 2.95 µM (≈ 9.37 µg/mL). The MIC (Staphylococcus aureus) was 0.74 µM and > 0.37 µM, the MIC [21] was 4.17 µM (≈ 13.2 µg/mL) and the MIC (Candida glabrata 0902) was 5.9 µM (≈ 18.7 µg/mL). It also gave an MIC [22] of 0.74 µM (≈ 2.35 µg/mL), an MIC [23] of 2.95 µM (≈ 9.37 µg/mL) and an MIC [24] of 5.9 µM (≈ 18.7 µg/mL). The MIC (Proteus vulgaris) was 23.6 µM (≈ 75 µg/mL), the MIC (Acinetobacter baumannii) was 1.48 µM and 1.05 µM and the MIC (Arcyria cinerea) was 0.37 µM and 0.74 µM. For the same molecule, the MIC [25] was 2.95 µM (≈ 9.37 µg/mL), the MIC [26] was 5.9 µM and > 2.95 µM and the MIC [27] was 2.95 µM and 5.9 µM.
With CC[C@H](C)[C@H](N)C(=O)N[C@@H](CC(C)C)C(=O)N1CCC[C@H]1C(=O)N[C@@H](Cc1c[nH]c2ccccc12)C(=O)N[C@@H](CCCCN)C(=O)N[C@@H](Cc1c[nH]c2ccccc12)C(=O)N1CCC[C@H]1C(=O)N[C@@H](Cc1c[nH]c2ccccc12)C(=O)N[C@@H](Cc1c[nH]c2ccccc12)C(=O)N1CCC[C@H]1C(=O)N[C@@H](Cc1c[nH]c2ccccc12)C(=O)N[C@@H](CCCN=C(N)N)C(N)=O [ILPWKWPWWPWR] the MIC (Escherichia coli F470) was 18.3 µM (≈ 32 µg/mL), the MIC (Escherichia coli JW3596) was 2.28 µM (≈ 4 µg/mL) and the MIC (Escherichia coli JW3605) was 18.3 µM (≈ 32 µg/mL). It also gave an MIC [5] of 18.3 µM (≈ 32 µg/mL), an MIC [28] of 0.8 µM (≈ 1.4 µg/mL) and an MIC (Escherichia coli F2513) of 6.46 µM (≈ 11.3 µg/mL). It also gave an MIC (Escherichia coli BW25113) of 18.3 µM (≈ 32 µg/mL).
